{"source": "paper PMC9060023", "about": "(Skin Health and Disease, 2021)", "key": {"[1]": {"experiment": "Pharmacokinetic study, single oral dose in Ay/a mice", "assay_type": "in vivo, mouse", "settings": "for Cmax: Ay/a, mouse, po; for Cmax / Tmax / AUC(0-t): plasma; for AUC(0-t): read-out: AUC0–8 h"}, "[2]": {"test_system": "cynomolgus monkeys (Macaca fascicularis)", "experiment": "Pigmentation on the facial skin of cynomolgus monkeys (colorimeter, ΔL*)", "assay_type": "in vivo, cynomolgus monkey", "description": "This study was conducted in compliance with the ‘Act on Welfare and Management of Animals’ in Japan and the ‘Guidance for Animal Care and Use’ and in accordance with the protocol reviewed by the Institutional Animal Care and Use Committee of the test facility, which is fully accredited by AAALAC International. […] The measurement site (cheek) was the same site on the face for all animals. […] The ΔL* represents the differences of individual L* values between each time point and pre‐test."}, "[3]": {"experiment": "Tissue distribution study in rats", "assay_type": "in vivo, rat", "settings": "data not shown"}, "[4]": {"test_system": "human MC1R (hMC1R)", "experiment": "Cyclic AMP assay in HEK293 cells stably expressing hMC1R", "assay_type": "cell-based", "settings": "wild type and variants", "experimental": "(§2) The site‐specific integration of each MCR gene was carried out in accordance with the Jump‐In^TM TI^TM Gateway® Targeted Integration System user guide (www.lifetechnologies.com) except replacement of tetracycline‐induced CMV promoter into SV40 promoter in MCR expression vector as previously described.[15] This technology enables stable single copy integration at the same location in the genome, equalising expression levels. CHO‐K1 cells expressing human MC2R and accessory protein MRAP were prepared by EuroscreenFast (Gosselies, Belgium).\n(§3) Hanks' balanced salt solution containing 1% bovine serum albumin and 10 mmol/l HEPES was prepared and used as an assay buffer. Cells were suspended in the assay buffer containing 0.5 mmol/l 3‐isobutyl‐1‐methylxanthine (Calbiochem) and plated into a microplate. Serially diluted test substances were then added and incubated for 30 min at 37°C. Concentrations of cAMP in the cells were quantified using the cAMP dynamic 2 kit (Cisbio Bioassays) by measuring fluorescence."}, "[5]": {"target": "T1, cynomolgus monkey MC1R (cmMC1R) (Macaca fascicularis, UniProt A3KF53)", "T1 sequence (A3KF53 1-317)": "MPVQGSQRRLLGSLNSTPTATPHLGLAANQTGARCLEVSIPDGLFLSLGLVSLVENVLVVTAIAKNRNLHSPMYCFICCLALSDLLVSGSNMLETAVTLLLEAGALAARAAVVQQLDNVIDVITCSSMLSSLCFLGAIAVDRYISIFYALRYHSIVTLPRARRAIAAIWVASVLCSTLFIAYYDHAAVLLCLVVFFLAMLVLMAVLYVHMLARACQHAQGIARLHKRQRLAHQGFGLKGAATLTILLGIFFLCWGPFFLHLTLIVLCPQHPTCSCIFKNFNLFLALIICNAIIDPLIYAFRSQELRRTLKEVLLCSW", "experiment": "Cyclic AMP assay in HEK293 cells stably expressing cmMC1R", "assay_type": "cell-based", "settings": "cmMC1R on HEK293; geometric mean of three experiments; read-out: EC50 agonistic activity (cAMP)", "experimental": "as §2, §3"}, "[6]": {"experiment": "Pharmacokinetic study, 4 weeks repeated oral dosing in cynomolgus monkeys", "assay_type": "in vivo, cynomolgus monkey", "settings": "for Cmax / Tmax / AUC(0-t): female, cynomolgus monkey, plasma; for AUC(0-t): read-out: AUC0–24 h"}, "[7]": {"test_system": "C57BL/6J-Ay/+ mice (Ay/a mice)", "experiment": "Coat colour darkening in Ay/a mice", "assay_type": "in vivo, mouse", "settings": "for Coat colour of all mice: 6 consecutive days", "description": "(§1) Unless noted otherwise, 3‐week‐old male C57BL/6J‐A^y/+ mice (Ay/a mice) were purchased from Japan SLC, Inc. Mice were housed under specific pathogen‐free conditions, and all animal experiments were conducted according to the Guidelines for Animal Experimentation at our institute. On day 0, the coat of the lower back was shaved, and animals were allocated to experimental groups. […] Assessment of coat colour of the shaved area on day 6 was performed macroscopically in a blinded manner. The dorsal skins were dissected and fixed in a neutralised formalin then embedded in paraffin. Melanin production in the hair roots of the dorsal skin was histologically evaluated by Fontana‐Masson staining."}, "[8]": {"target": "T2, rat MC1R (Rattus norvegicus, UniProt B6ZGR5)", "T2 construct": "expressed in transfected cells; host or cells: HEK293 (Jump-In TI Gateway targeted integration, SV40 promoter)", "T2 sequence (B6ZGR5 1-317)": "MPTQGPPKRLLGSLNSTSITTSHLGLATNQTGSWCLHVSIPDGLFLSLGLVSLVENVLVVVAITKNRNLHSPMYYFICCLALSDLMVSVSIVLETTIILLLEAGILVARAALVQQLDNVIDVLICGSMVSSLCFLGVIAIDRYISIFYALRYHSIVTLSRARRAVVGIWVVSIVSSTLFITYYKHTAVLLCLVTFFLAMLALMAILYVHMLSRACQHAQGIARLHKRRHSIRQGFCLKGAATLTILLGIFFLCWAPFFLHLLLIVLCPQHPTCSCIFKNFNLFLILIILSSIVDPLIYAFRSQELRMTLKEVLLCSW", "experiment": "Cyclic AMP assay in HEK293 cells stably expressing rat MC1R", "assay_type": "cell-based", "settings": "data not shown, read-out: EC50 agonistic activity (cAMP)"}, "[9]": {"test_system": "Tyr, Trp1 and Dct genes", "experiment": "Expression of melanogenesis genes in pinnae of Ay/a mice (quantitative real-time PCR)", "assay_type": "in vivo, mouse", "description": "as §1\nTotal RNA was extracted using the Qiagen RNeasy Mini Kit (Qiagen), and quantitative real‐time PCR for Tyr, Trp1 and Dct was performed using the One Step SYBR PrimeScript PLUS RT‐PCR Kit (Takara Bio). Hypoxanthine phosphoribosyltransferase 1 (Hprt) was used as an endogenous control for normalisation. The ΔCT method was used to determine the relative expression levels. All PCR primers were purchased from Takara Bio with following product codes, MA153806 (Tyr), MA129755 (Trp1), MA118342 (Dct) and MA031262 (Hprt)."}, "[10]": {"test_system": "melanocytes in face", "experiment": "Chronic toxicity study, histopathology of melanocytes in face", "assay_type": "in vivo", "settings": "chronic toxicity study in non-rodent species; data not shown"}, "[11]": {"target": "T3, human MC2R (hMC2R) (Homo sapiens, UniProt Q01718)", "T3 construct": "host or cells: CHO-K1", "T3 sequence (Q01718 whole entry)": "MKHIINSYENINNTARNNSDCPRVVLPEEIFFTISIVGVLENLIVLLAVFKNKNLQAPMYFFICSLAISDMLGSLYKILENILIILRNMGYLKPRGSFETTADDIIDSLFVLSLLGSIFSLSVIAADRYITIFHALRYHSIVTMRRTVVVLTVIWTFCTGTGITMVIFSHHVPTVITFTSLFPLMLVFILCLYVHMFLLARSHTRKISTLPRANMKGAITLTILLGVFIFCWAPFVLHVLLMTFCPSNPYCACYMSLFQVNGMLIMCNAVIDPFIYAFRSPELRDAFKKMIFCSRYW", "T3 sequence (Q8TCY5 whole entry partner)": "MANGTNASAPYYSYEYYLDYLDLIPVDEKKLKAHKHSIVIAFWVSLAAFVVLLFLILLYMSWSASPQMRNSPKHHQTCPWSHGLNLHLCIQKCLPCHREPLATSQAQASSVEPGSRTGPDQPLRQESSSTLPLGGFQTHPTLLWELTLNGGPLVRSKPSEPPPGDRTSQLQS", "experiment": "Cyclic AMP assay in CHO-K1 cells expressing human MC2R and MRAP", "assay_type": "cell-based", "settings": "data not shown, read-out: EC50 agonistic activity (cAMP)"}, "[12]": {"test_system": "B16F1 mouse melanoma cell line", "experiment": "Melanin production in B16F1 cell line", "assay_type": "cell-based", "settings": "B16-F1, 72 h, read-out: EC50 of melanin production (95% confidence interval)", "experimental": "Dulbecco's modified Eagle medium without phenol red (Life Technologies), containing 10% foetal bovine serum (Gibco) and 100 U/ml of penicillin‐streptomycin (Gibco), was used as the assay medium. Cells (1.5 × 10^4) were seeded into a 96‐well culture plate. Serially diluted test substances were added to the plate and incubated at 37°C in a humidified 5% CO2 incubator for 3 days."}, "[13]": {"settings": "Ay/a mouse, male, 0.03 mg/kg oral, day 1"}, "[14]": {"settings": "Ay/a mouse, male, 0.3 mg/kg oral, day 1"}}, "data": [{"compound": "COC[C@H]1CN(C(=O)[C@]2(F)CN(C3CCCC3)C[C@H]2c2ccc(OC)cc2)C[C@@H]1c1ccc(C(F)(F)F)cc1N1CCC(C(=O)O)CC1", "note": "[MT‐7117, dersimelagon]", "values": [{"measurement": "C max", "setting": "[1]; Ay/a mouse, male, 0.3 mg/kg oral, day 1, 0.3 mg/kg", "value": 5.62, "unit": "ng/mL"}, {"measurement": "Cmax", "setting": "[1]; male, 0.03 mg/kg, Ay/a mouse, male, 0.03 mg/kg oral, day 1, read-out: C max", "value": 0.668, "unit": "ng/mL"}, {"measurement": "Cmax", "setting": "[1]; male, 0.3 mg/kg, Ay/a mouse, male, 0.3 mg/kg oral, day 1, read-out: C max", "value": 5.6, "unit": "ng/mL"}, {"measurement": "Cmax", "setting": "[1]; male, 0.3 mg/kg, mice, single oral dose 0.3 mg/kg, read-out: Cmax in molar units", "value": 8.3, "unit": "nM"}, {"measurement": "Increase of plasma levels with dose", "setting": "[1]; mice, 0.03 and 0.3 mg/kg", "value": "dose‐proportional manner"}, {"measurement": "Tmax", "setting": "[1]; [13]", "value": 0.5, "unit": "h"}, {"measurement": "AUC(0-t)", "setting": "[1]; [13]", "value": 2.62, "unit": "ng·h/mL"}, {"measurement": "Tmax", "setting": "[1]; [14]", "value": 2, "unit": "h"}, {"measurement": "AUC(0-t)", "setting": "[1]; [14]", "value": 31.8, "unit": "ng·h/mL"}, {"measurement": "Time of dosing after which ΔL* decrease was statistically significant versus vehicle", "setting": "[2]; 10 mg/kg/day oral", "value": 3, "unit": "weeks"}, {"measurement": "Time after cessation of treatment at which pigmentation diminished", "setting": "[2]; 30 mg/kg group", "value": 16, "unit": "weeks"}, {"measurement": "Time of dosing after which ΔL* decrease was statistically significant versus vehicle", "setting": "[2]; 30 mg/kg/day oral", "value": 1, "unit": "week"}, {"measurement": "Time after cessation of treatment at which pigmentation diminished", "setting": "[2]; 1, 3 and 10 mg/kg groups", "value": 4, "unit": "weeks"}, {"measurement": "Time of dosing after which ΔL* decrease was statistically significant versus vehicle", "setting": "[2]; 1 and 3 mg/kg/day oral", "value": 4, "unit": "weeks"}, {"measurement": "Minimum effective dose for skin pigmentation of monkeys", "setting": "[2]; oral, once daily", "value": 1, "unit": "mg/kg"}, {"measurement": "Dose that induced significant skin pigmentation in monkeys", "setting": "[2]; p.o.", "value": "≥ 1", "unit": "mg/kg/day"}, {"measurement": "Distribution into the brain", "setting": "[3]", "value": "less likely to be distributed into the brain"}, {"measurement": "Emax of cAMP production compared with αMSH", "setting": "[4]", "value": "same level as that of the endogenous agonist αMSH"}, {"measurement": "EC50", "setting": "[5]", "value": 3.91, "unit": "nM"}, {"measurement": "Cmax", "setting": "[6]; monkeys, repeated oral dosing 1 mg/kg, read-out: Cmax in molar units", "value": 78, "unit": "nM"}, {"measurement": "Increase of plasma levels with dose", "setting": "[6]; monkeys, 1, 3 and 10 mg/kg", "value": "greater than a dose‐proportional increase"}, {"measurement": "Tmax", "setting": "[6]; 1 mg/kg oral, day 28", "value": 2.6, "unit": "h"}, {"measurement": "AUC(0-t)", "setting": "[6]; 1 mg/kg oral, day 28", "value": 428, "unit": "ng·h/mL"}, {"measurement": "Cmax", "setting": "[6]; 1 mg/kg oral, day 28, read-out: C max", "value": 53, "unit": "ng/mL"}, {"measurement": "Tmax", "setting": "[6]; 3 mg/kg oral, day 28", "value": 1, "unit": "h"}, {"measurement": "AUC(0-t)", "setting": "[6]; 3 mg/kg oral, day 28", "value": 2510, "unit": "ng·h/mL"}, {"measurement": "Cmax", "setting": "[6]; 3 mg/kg oral, day 28, read-out: C max", "value": 401, "unit": "ng/mL"}, {"measurement": "Tmax", "setting": "[6]; 10 mg/kg oral, day 28", "value": 1.8, "unit": "h"}, {"measurement": "AUC(0-t)", "setting": "[6]; 10 mg/kg oral, day 28", "value": 14100, "unit": "ng·h/mL"}, {"measurement": "Cmax", "setting": "[6]; 10 mg/kg oral, day 28, read-out: C max", "value": 1510, "unit": "ng/mL"}, {"measurement": "Coat colour of all mice", "setting": "[7]; 0.3 mg/kg orally", "value": "black"}, {"measurement": "Coat colour of all mice", "setting": "[7]; 3 mg/kg orally", "value": "black"}, {"measurement": "Pigment in the hair root (Fontana-Masson staining of dorsal skin)", "setting": "[7]; 3 mg/kg, day 6", "value": "black"}, {"measurement": "Minimum effective dose for darkening of coat colour of mice", "setting": "[7]; oral, Ay/a mice", "value": 0.3, "unit": "mg/kg"}, {"measurement": "Dose that significantly induced coat colour darkening in mice", "setting": "[7]; p.o.", "value": "≥ 0.3", "unit": "mg/kg/day"}, {"measurement": "EC50", "setting": "[8]", "value": 0.251, "unit": "nM"}, {"measurement": "Expression of Tyr, Trp1 and Dct genes in pinnae", "setting": "[9]; 0.3 mg/kg single oral dose, 24 h", "value": "tendency towards gene upregulation"}, {"measurement": "Expression of Tyr, Trp1 and Dct genes in pinnae", "setting": "[9]; 3 mg/kg single oral dose, 24, 48 and 72 h, relative to Hprt", "value": "significantly upregulated"}, {"measurement": "Histopathological change for melanocytes in face", "setting": "[10]", "value": "no histopathological change"}, {"measurement": "EC50", "setting": "[11]", "value": "> 10000", "unit": "nM"}, {"measurement": "EC50", "setting": "[12]", "value": 0.013, "unit": "nM"}]}]}
